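Cells were grown in 96-well plates and exposed to each compound for 48 hours at five concentrations; endpoints were interpolated linearly between bracketing concentrations, or set to the highest concentration if not reached. GI50 is the concentration that inhibits growth by half. At the TGI there is no net growth.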
How the values were obtained:
Experiment in all cases: NCI-60 cell line screen, 48 h
[1] = system: NCI-H226 lung
[2] = system: EKVX NSCLC
[3] = system: CCRF-CEM leukemia
[4] = system: SK-MEL-5 melanoma
[5] = system: OVCAR-5 ovarian
[6] = system: SNB-75 CNS
[7] = system: HCT-116 colon
[8] = system: BT-549 breast
[9] = system: PC-3 prostate
[10] = system: DU-145 prostate

O=C1CC(c2c[nH]c3ccccc23)C(=O)N1 (stereo not drawn)
TGI [1]: > 100 µM | TGI [2]: > 100 µM | TGI [3]: > 100 µM | TGI [4]: > 100 µM | TGI [5]: > 100 µM | TGI [6]: > 100 µM | TGI [7]: > 100 µM

CC(=O)Nc1ccc(SC#N)c2c(NC(C)=O)cccc12
TGI [1]: > 100 µM | TGI [2]: > 100 µM | TGI [3]: > 90.6 µM | TGI [4]: > 100 µM | TGI [5]: > 100 µM | TGI [6]: > 100 µM | TGI [7]: > 100 µM

CCCP1(=O)C=C(C)C(=C(Cl)Cl)C(C)=C1 (stereo not drawn)
TGI [2]: > 100 µM | TGI [3]: > 100 µM | TGI [4]: 49.1 µM | TGI [5]: > 100 µM | TGI [7]: > 100 µM

COc1ccccc1-c1cc(=O)c2cc(C)cnc2[nH]1
TGI [1]: > 100 µM | TGI [2]: > 100 µM | TGI [8]: > 100 µM | TGI [3]: 55.2 µM | GI50 [4]: 20.4 µM | TGI [4]: > 100 µM | TGI [5]: > 100 µM | GI50 [9]: 27 µM | TGI [9]: > 100 µM | TGI [10]: > 100 µM | GI50 [7]: 42.8 µM | TGI [7]: > 100 µM

COc1cccc(OC)c1C(=O)OCc1ccccc1
TGI [1]: > 100 µM | TGI [2]: > 100 µM | TGI [3]: > 100 µM | TGI [4]: > 100 µM | TGI [6]: > 100 µM | TGI [7]: > 100 µM

NNC(=O)CS(=O)(=O)Nc1ncccn1
TGI [1]: > 100 µM | TGI [2]: > 100 µM | TGI [8]: > 100 µM | TGI [4]: > 100 µM | TGI [5]: > 100 µM | TGI [6]: > 100 µM | TGI [9]: > 100 µM | TGI [10]: > 100 µM | TGI [7]: > 100 µM

Clc1ccc(Nc2nc3ccccc3nc2-c2cccs2)cc1Cl
TGI [1]: > 100 µM | TGI [2]: > 100 µM | TGI [3]: > 100 µM | TGI [5]: > 100 µM | TGI [6]: > 100 µM | TGI [7]: > 100 µM

CC(=O)C(CN(CC(C)C)CC(C)C)C(c1ccccc1)c1c(O)c2ccccc2oc1=O (stereo not drawn)
TGI [1]: > 100 µM | TGI [2]: > 100 µM | TGI [5]: > 100 µM | TGI [6]: > 100 µM | TGI [7]: > 100 µM

COc1ccc(-c2nc(Nc3cc(C)[nH]n3)c3ccccc3n2)cc1
GI50 [1]: 1.62 µM | TGI [1]: > 33.3 µM | GI50 [8]: 3.07 µM | TGI [8]: 12.6 µM | GI50 [3]: 5.18 µM | TGI [3]: 66.2 µM | GI50 [4]: 4.11 µM | TGI [4]: 22.7 µM | GI50 [5]: 2.25 µM | TGI [5]: > 88 µM | GI50 [6]: 0.289 µM | TGI [6]: 2.27 µM | GI50 [9]: 1.48 µM | TGI [9]: 66.1 µM | GI50 [10]: 3.75 µM | TGI [10]: > 100 µM | GI50 [7]: 0.744 µM | TGI [7]: 17.5 µM

COc1cc(C(=O)C/C(CCC(=O)Nc2ccccc2[N+](=O)[O-])=N\NC(N)=O)ccc1O
TGI [1]: > 100 µM | TGI [2]: > 100 µM | TGI [3]: > 100 µM | TGI [4]: > 100 µM | TGI [5]: > 100 µM | TGI [6]: > 100 µM | TGI [7]: > 100 µM

CO[C@H]1CC(O[C@@H]2/C(C)=C/C[C@@H]3C[C@@H](C[C@]4(C=C[C@H](C)[C@@H](C5CCCCC5)O4)O3)OC(=O)[C@@H]3C=C(C)[C@@H](O)[C@H]4OC/C(=C\C=C\[C@@H]2C)[C@]43O)O[C@@H](C)C1O[C@H]1C[C@H](OC)[C@@H](O)[C@H](C)O1 (stereo partly drawn)
GI50 [1]: 1.45 µM | TGI [1]: 2.95 µM | GI50 [8]: 1.78 µM | TGI [8]: 3.24 µM | GI50 [3]: 1.88 µM | TGI [3]: 4.4 µM | GI50 [4]: 1.41 µM | TGI [4]: 2.77 µM | GI50 [6]: 1.45 µM | TGI [6]: 3.6 µM | GI50 [9]: 1.08 µM | TGI [9]: 2.68 µM | GI50 [7]: 1.4 µM | TGI [7]: 2.72 µM

CCC(=O)C12OC3OC(C)(C)OC3C1OC(C)(C)O2 (stereo not drawn)
TGI [1]: > 100 µM | TGI [2]: > 100 µM | TGI [3]: > 100 µM | TGI [5]: > 100 µM | TGI [6]: > 100 µM | TGI [7]: > 100 µM

O=C1c2cccnc2C(=O)c2c1c(C(=O)NCCCN1CCCCC1)c1ccccn21
GI50 [2]: 1.37 µM | TGI [2]: 3.2 µM | GI50 [8]: 2.47 µM | TGI [8]: 6.89 µM | GI50 [3]: 3.26 µM | TGI [3]: > 100 µM | GI50 [4]: 0.36 µM | TGI [4]: 1.35 µM | GI50 [5]: 1.85 µM | TGI [5]: 7.44 µM | GI50 [6]: 1.36 µM | TGI [6]: 2.86 µM | GI50 [9]: 1.49 µM | TGI [9]: 7.21 µM | GI50 [10]: 1.2 µM | TGI [10]: 2.61 µM | GI50 [7]: 0.337 µM | TGI [7]: 1.22 µM

CC1(O)C=CC(=O)C=C1
TGI [1]: > 100 µM | TGI [2]: > 100 µM | TGI [3]: > 77 µM | TGI [4]: > 89.4 µM | TGI [5]: > 100 µM | TGI [6]: > 100 µM | TGI [7]: > 100 µM

Cc1[nH]c2ccccc2c1C(=O)CC1(O)C(=O)Nc2c(Cl)cc(Cl)cc21 (stereo not drawn)
TGI [1]: 42.7 µM | TGI [3]: 47.9 µM | TGI [4]: 31.5 µM | TGI [5]: 52.1 µM | TGI [6]: > 100 µM | TGI [7]: > 100 µM

COc1cc2nc(N3CCCC3)nc(NCCc3ccccc3)c2cc1OC
GI50 [1]: 11.4 µM | TGI [1]: 34 µM | GI50 [2]: 1.85 µM | TGI [2]: 3.9 µM | GI50 [8]: 1.75 µM | TGI [8]: 3.51 µM | GI50 [3]: 1.44 µM | TGI [3]: 10.6 µM | GI50 [4]: 1.7 µM | TGI [4]: 3.15 µM | GI50 [5]: 1.72 µM | TGI [5]: 3.21 µM | GI50 [6]: 1.52 µM | TGI [6]: 2.89 µM | GI50 [9]: 1.68 µM | TGI [9]: 3.91 µM | GI50 [10]: 2.11 µM | TGI [10]: 5.11 µM

CN(N=O)C(=O)ON1C(=O)CCC1=O
TGI [1]: > 100 µM | TGI [2]: > 100 µM | TGI [3]: > 100 µM | TGI [4]: > 100 µM | TGI [5]: > 100 µM | TGI [6]: > 100 µM | TGI [7]: > 100 µM

O=C1C(=C([O-])c2ccccc2)C(=O)c2ccccc21.O=C1C(=C([O-])c2ccccc2)C(=O)c2ccccc21.[Fe+2]
GI50 [1]: > 100 µM | TGI [1]: > 100 µM | GI50 [3]: 80.3 µM | TGI [3]: > 100 µM | GI50 [4]: > 100 µM | TGI [4]: > 100 µM | GI50 [5]: > 100 µM | TGI [5]: > 100 µM | GI50 [6]: 61.5 µM | TGI [6]: > 100 µM | GI50 [7]: > 100 µM | TGI [7]: > 100 µM

COC(=O)C1CC2CC(=NNC(N)=O)CC2C1 (stereo not drawn)
TGI [2]: > 100 µM | TGI [3]: > 100 µM | TGI [4]: > 100 µM | TGI [5]: > 100 µM | TGI [6]: > 100 µM | TGI [7]: > 100 µM

CCOC(=O)C1=C(C)N(c2ccc(Cl)cc2)[C@]2(C#N)C(O)=C(Cl)C(Cl)=C(O)[C@]12C#N
GI50 [1]: > 100 µM | TGI [1]: > 100 µM | GI50 [2]: 6.24 µM | TGI [2]: 43.2 µM | GI50 [8]: 1.57 µM | TGI [8]: 33.4 µM | GI50 [3]: 25.6 µM | TGI [3]: 75.9 µM | GI50 [4]: > 100 µM | TGI [4]: > 100 µM | GI50 [6]: 26.1 µM | TGI [6]: 83 µM | GI50 [10]: 0.339 µM | TGI [10]: 24.5 µM | GI50 [7]: 90 µM | TGI [7]: > 100 µM

C1CCC([PH+](C2CCCCC2)C2CCCCC2[PH+](C2CCCCC2)C2CCCCC2)CC1.[Au].[CH-]1CCCCC1CC1CCCC[N-]1 (stereo not drawn)
GI50 [1]: 0.561 µM | TGI [1]: 2.7 µM | GI50 [2]: 0.302 µM | TGI [2]: 1.97 µM | GI50 [8]: 0.33 µM | TGI [8]: 1.51 µM | GI50 [4]: 0.288 µM | TGI [4]: 0.813 µM | GI50 [5]: 0.452 µM | TGI [5]: 2.01 µM | GI50 [6]: 0.23 µM | TGI [6]: 0.971 µM | GI50 [9]: 0.283 µM | TGI [9]: 1.93 µM | GI50 [10]: 0.363 µM | TGI [10]: 2.2 µM
